Reference: ChEMBL document CHEMBL1127149, “The squalestatins: potent inhibitors of squalene synthase. The role of the tricarboxylic acid moiety” (Bioorg Med Chem Lett, 1993)

Target: T1, Squalene synthase (Rattus norvegicus, UniProt Q02769)
T1 sequence (Q02769 whole entry): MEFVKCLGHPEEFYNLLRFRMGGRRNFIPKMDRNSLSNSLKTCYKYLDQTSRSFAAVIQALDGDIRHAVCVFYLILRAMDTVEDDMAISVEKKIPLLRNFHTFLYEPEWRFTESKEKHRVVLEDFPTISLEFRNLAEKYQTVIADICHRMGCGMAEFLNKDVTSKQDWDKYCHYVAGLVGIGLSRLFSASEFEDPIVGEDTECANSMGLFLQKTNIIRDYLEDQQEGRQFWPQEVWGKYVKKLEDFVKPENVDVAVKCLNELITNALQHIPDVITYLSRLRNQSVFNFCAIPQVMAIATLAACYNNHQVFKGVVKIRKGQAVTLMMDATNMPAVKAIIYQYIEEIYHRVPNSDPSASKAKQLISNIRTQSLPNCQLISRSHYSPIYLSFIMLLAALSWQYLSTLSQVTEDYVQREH
Test: In vitro inhibitory activity measured against rat squalene synthase(SQS) enzyme
Conditions: not given

Structure (SMILES) | IC50
C=C(CC[C@]12O[C@H](C(=O)O)[C@@](O)(C(=O)OC)[C@](C(=O)O)(O1)[C@H](O)[C@H]2O)[C@@H](OC(C)=O)[C@H](C)Cc1ccccc1 | 0.355 µM
C=C(CC[C@]12O[C@H](C(=O)OC)[C@@](O)(C(=O)OC)[C@](C(=O)O)(O1)[C@H](OC(=O)/C=C/[C@@H](C)C[C@@H](C)CC)[C@H]2O)[C@@H](OC(C)=O)[C@H](C)Cc1ccccc1 | 0.134 µM
C=C(CC[C@]12O[C@H](C(=O)OC)[C@@](O)(C(=O)OC)[C@](C(=O)OC)(O1)[C@H](OC(=O)/C=C/[C@@H](C)C[C@@H](C)CC)[C@H]2O)[C@@H](OC(C)=O)[C@H](C)Cc1ccccc1 | > 0.5 µM

The remaining lines, values ahead:

IC50 | Structure (SMILES)
> 0.5 µM | C=C(CC[C@]12O[C@H](C(=O)O)[C@@](O)(C(=O)O)[C@](C(=O)OC)(O1)[C@H](OC(=O)/C=C/[C@@H](C)C[C@@H](C)CC)[C@H]2O)[C@@H](OC(C)=O)[C@H](C)Cc1ccccc1
> 0.5 µM | C=C(CC[C@]12O[C@H](C(=O)O)[C@@](O)(C(=O)OC)[C@](C(=O)OC)(O1)[C@H](OC(=O)/C=C/[C@@H](C)C[C@@H](C)CC)[C@H]2O)[C@@H](OC(C)=O)[C@H](C)Cc1ccccc1
0.22 µM | C=C(CC[C@]12O[C@H](C(=O)OC)[C@@](O)(C(=O)O)[C@](C(=O)O)(O1)[C@H](O)[C@H]2O)[C@@H](OC(C)=O)[C@H](C)Cc1ccccc1
> 0.5 µM | C=C(CC[C@]12O[C@H](C(=O)OC)[C@@](O)(C(=O)O)[C@](C(=O)OC)(O1)[C@H](OC(=O)/C=C/[C@@H](C)C[C@@H](C)CC)[C@H]2O)[C@@H](OC(C)=O)[C@H](C)Cc1ccccc1
> 0.5 µM | C=C(CC[C@]12O[C@H](C(=O)O)[C@@](O)(C(=O)O)[C@](C(=O)OC)(O1)[C@H](O)[C@H]2O)[C@@H](OC(C)=O)[C@H](C)Cc1ccccc1

Organism: Rattus norvegicus
Test: Inhibitory activity of compound was measured against cholesterol biosynthesis from [14C]- acetate by isolated rat hepatocytes
Format: functional
Conditions: Hepatocyte

Structure (SMILES) | IC50
C=C(CC[C@]12O[C@H](C(=O)O)[C@@](O)(C(=O)O)[C@](C(=O)O)(O1)[C@H](OC(=O)/C=C/[C@@H](C)C[C@@H](C)CC)[C@H]2O)[C@@H](OC(C)=O)[C@H](C)Cc1ccccc1 [ZARAGOZIC ACIDS A] | 0.039 µM
